| Compound | melting point |
| --- | --- |
| CN(C(=O)OC(C)(C)C)[C@@H](Cc1ccccc1)C(=O)Nc1n[nH]c(-c2ccc(F)cc2)c1-c1ccncc1 [Example 89, 3-(N′-Carbo-t-butoxy-N′-methyl-L-Phenylalanylamino)-5-(4-fluorophenyl)-4-(4-pyridyl)pyrazole] | 232.4 to 233.1 °C |
| O=C(Cc1ccccc1[N+](=O)[O-])Nc1n[nH]c(-c2ccc(F)cc2)c1-c1ccncc1 [Example 92, 5-(4-fluorophenyl)-3-(2-nitrophenylacetylamino)-4-(4-pyridyl)pyrazole] | 242.4 to 244.1 °C |
| Nc1ccccc1CC(=O)Nc1n[nH]c(-c2ccc(F)cc2)c1-c1ccncc1 [Example 93, 5-(4-fluorophenyl)-3-(2-aminophenylacetylamino)-4-(4-pyridyl)pyrazole] | 196.3 to 197.1 °C |
| Cn1nc(-c2ccc(F)cc2)c(-c2ccncc2)c1NC(=O)Cc1cccc(N)c1 [Example 94, 5-(3-Aminophenylacetylamino)-3-(4-fluorophenyl)-1-methyl-4-(4-pyridyl)pyrazole] | 110.6 to 119 °C |
| Cn1nc(-c2ccc(F)cc2)c(-c2ccncc2)c1NC(=O)Cc1ccc(O)cc1 [Example 95, 5-(4-hydroxyphenylacetylamino)-3-(4-fluorophenyl)-1-methyl-4-(4-pyridyl)pyrazole] | 127.1 to 128.6 °C |
| CCn1nc(-c2ccc(F)cc2)c(-c2ccncc2)c1NC(=O)Cc1ccccc1 [Example 97, 1-Ethyl-3-(4-fluorophenyl)-5-phenylacetylamino-4-(4-pyridyl)pyrazole] | 219 to 221.2 °C |
| CCn1nc(-c2ccc(F)cc2)c(-c2ccncc2)c1NC(=O)Cc1ccccc1Cl [Example 98, 5-(2-Chlorophenylacetylamino)-1-ethyl-3-(4-fluorophenyl)-4-(4-pyridyl)pyrazole] | 226 to 232.3 °C |
| CCCn1nc(-c2ccc(F)cc2)c(-c2ccncc2)c1NC(=O)Cc1ccccc1 [Example 99, 3-(4-Fluorophenyl)-5-phenylacetylamino-1-propyl-4-(4-pyridyl)pyrazole] | 176.5 to 178.5 °C |
| CCn1nc(-c2ccc(F)cc2)c(-c2ccncc2)c1NC(=O)Cc1ccccn1 [Example 100, 1-Ethyl-3-(4-fluorophenyl)-4-(4-pyridyl)-5-(2-pyridylacetylamino)pyrazole] | 147.5 to 149.5 °C |
| COc1ccccc1CC(=O)Nc1c(-c2ccncc2)c(-c2ccc(F)cc2)nn1CCOCc1ccccc1 [Example 103, 1-(2-Benzyloxyethyl)-3-(4-fluorophenyl)-5-(2-methoxyphenylacetylamino)-4-(4-pyridyl)pyrazole] | 142.9 to 144.2 °C |
| COc1ccccc1CC(=O)Nc1c(-c2ccncc2)c(-c2ccc(F)cc2)nn1CCO [Example 104, 3-(4-fluorophenyl)-1-(2-hydroxyethyl)-5-(2-methoxyphenylacetylamino)-4-(4-pyridyl)pyrazole] | 200.6 to 204.2 °C |
| O=C(Cc1ccccc1)Nc1c(-c2ccncc2)c(-c2ccc(F)cc2)nn1CCO [Example 105, 3-(4-Fluorophenyl)-1-(2-hydroxyethyl)-5-phenylacetylamino-4-(4-pyridyl)pyrazole] | 180.3 to 183.6 °C |
| O=C(Cc1ccccc1Cl)Nc1c(-c2ccncc2)c(-c2ccc(F)cc2)nn1-c1ccccc1 [Example 107, 5-(2-chlorophenylacetylamino)-3-(4-fluorophenyl)-1-phenyl-4-(4-pyridyl)pyrazole] | 265.2 to 268 °C |
| Cn1nc(-c2ccc3c(c2)OCO3)c(-c2ccncc2)c1NC(=O)Cc1ccccc1 [Example 109, 1-methyl-3-(3,4-methylenedioxyphenyl)-5-phenylacetylamino-4-(4-pyridyl)pyrazole] | 127.5 to 132.1 °C |
| Cn1nc(-c2ccc3c(c2)OCO3)c(-c2ccncc2)c1NC(=O)Cc1ccc(F)c(Cl)c1 [Example 110, 5-(3-Chloro-4-fluorophenylacetylamino)-1-methyl-3-(3,4-methylenedioxyphenyl)-4-(4-pyridyl)pyrazole] | 206.9 to 208.7 °C |
| Cn1nc(-c2ccc(Cl)c(Cl)c2)c(-c2ccncc2)c1NC(=O)Cc1ccccc1 [Example 111, 3-(3,4-Dichlorophenyl)-1-methyl-5-phenylacetylamino-4-(4-pyridyl)pyrazole] | 198.4 to 199.1 °C |
| Cn1nc(-c2ccc(F)c(Cl)c2)c(-c2ccncc2)c1NC(=O)Cc1ccc(F)cc1Cl [Example 112, 3-(3-Chloro-4-fluorophenyl)-5-(2-chloro-4-fluorophenylacetylamino)-1-methyl-4-(4-pyridyl)pyrazole] | 162.8 to 163.9 °C |
| Cn1nc(-c2ccc(F)c(Cl)c2)c(-c2ccncc2)c1NC(=O)Cc1ccccc1 [Example 113, 3-(3-Chloro-4-fluorophenyl)-1-methyl-5-phenylacetylamino-4-(4-pyridyl)pyrazole] | 194.2 to 194.7 °C |

| Compound | melting point |
| --- | --- |
| Cn1nc(-c2ccc(F)c(Cl)c2)c(-c2ccncc2)c1NC(=O)Cc1c(F)c(F)c(F)c(F)c1F [Example 114, 3-(3-Chloro-4-fluorophenyl)-1-methyl-5-(2,3,4,5,6-pentafluorophenylacetylamino)4-(4-pyridyl)pyrazole] | 194.7 to 196 °C |
| Cn1nc(-c2ccc(Cl)c(Cl)c2)c(-c2ccncc2)c1NC(=O)Cc1ccc(F)cc1Cl [Example 115, 5-(2-Chloro-4-fluorophenylacetylamino)-3-(3,4-dichlorophenyl)-1-methyl-4-(4-pyridyl)pyrazole] | 279.3 to 280.1 °C |
| Cn1nc(NC(=O)Cc2ccccc2)c(-c2ccncc2)c1-c1ccc(F)cc1 [Example 116, 5-(4-fluorophenyl)-1-methyl-3-phenylacetylamino-4-(4-pyridyl)pyrazole] | 157.6 to 160.1 °C |
| Cn1nc(-c2ccc(F)cc2)c(-c2ccncc2)c1NC(=O)Cc1ccccc1 [Example 117, 3-(4-Fluorophenyl)-1-methyl-5-phenylacetylamino-4-(4-pyridyl)pyrazole] | 164.9 to 166.5 °C |
| Cn1nc(NC(=O)Cc2ccccc2Cl)c(-c2ccncc2)c1-c1ccc(F)cc1 [Example 118, 3-(2-Chlorophenylacetylamino)-5-(4-fluorophenyl)-1-methyl-4-(4-pyridyl)pyrazole] | 193.8 to 195.3 °C |
| CN(C(=O)Cc1ccccc1)c1nn(C)c(-c2ccc(F)cc2)c1-c1ccncc1 [Example 119, 5-(4-fluorophenyl)-1-methyl-3-(N-methyl-N-phenylacetylamino)-4-(4-pyridyl)pyrazole] | 169.8 to 171.1 °C |
| CN(C(=O)Cc1ccccc1)c1c(-c2ccncc2)c(-c2ccc(F)cc2)nn1C [Example 120, 3-(4-Fluorophenyl)-1-methyl-5-(N-methyl-N-phenylacetylamino)-4-(4-pyridyl)pyrazole] | 168.5 to 171.2 °C |
| CN(C(=O)Cc1ccccc1Cl)c1c(-c2ccncc2)c(-c2ccc(F)cc2)nn1C [Example 121, 5-[N-(2-chlorophenylacetyl)-N-methylamino]-3-(4-fluorophenyl)-1-methyl-4-(4-pyridyl)pyrazole] | 168.6 to 171.2 °C |
| CN(C(=O)Cc1c(Cl)cccc1Cl)c1c(-c2ccncc2)c(-c2ccc(F)cc2)nn1C [Example 122, 5-[N-(2,6-dichlorophenylacetyl)-N-methylamino]-3-(4-fluorophenyl)-1-methyl-4-(4-pyridyl)pyrazole] | 205.7 to 207.8 °C |
| CN(C(=O)Cc1ccc(F)cc1)c1c(-c2ccncc2)c(-c2ccc(F)cc2)nn1C [Example 125, 3-(4-Fluorophenyl)-5-[N-(4-fluorophenylacetyl)-N-methylamino]-1-methyl-4-(4-pyridyl)pyrazole] | 124.1 to 125.6 °C |
| COc1ccc(CC(=O)N(C)c2c(-c3ccncc3)c(-c3ccc(F)cc3)nn2C)cc1 [Example 126, 3-(4-Fluorophenyl)-1-methyl-5-[N-methyl-N-(4-methoxyphenylacetyl)amino]-4-(4-pyridyl)pyrazole] | 175.8 to 178.1 °C |
| CCCn1nc(-c2ccc(F)cc2)c(-c2ccncc2)c1N(C)C(=O)Cc1ccccc1 [Example 128, 3-(4-Fluorophenyl)-5-(N-methyl-N-phenylacetylamino)-1-propyl-4-(4-pyridyl)pyrazole] | 124.5 to 127.3 °C |
| CN(C(=O)Cc1ccccn1)c1c(-c2ccncc2)c(-c2ccc(F)cc2)nn1C [Example 129, 3-(4-Fluorophenyl)-1-methyl-5-[N-methyl-N-(2-pyridylacetyl)amino]-4-(4-pyridyl)pyrazole] | 144 to 145.2 °C |
| CN(C(=O)Cc1ccccc1Cl)c1c(-c2ccncc2)c(-c2ccc(F)cc2)nn1-c1ccccc1 [Example 130, 3-(4-Fluorophenyl)-5-[N-methyl-N-(2-chlorophenylacetyl)amino]-1-phenyl-4-(4-pyridyl)pyrazole] | 203.8 to 205.6 °C |
| COc1ccccc1CC(=O)N(C)c1c(-c2ccncc2)c(-c2ccc(F)cc2)nn1C [Example 131, 3-(4-Fluorophenyl)-5-[N-methyl-N-(2-methoxyphenylacetyl)amino]-1-methyl-4-(4-pyridyl)pyrazole] | 143.6 to 145.3 °C |
| Cn1nc(-c2ccc(F)cc2)c(-c2ccncc2)c1NC(=O)Nc1ccccc1 [Example 136, 3-(4-fluorophenyl)-1-methyl-5-(phenylaminocarbonylamino)-4-(4-pyridyl)pyrazole] | 287.5 to 290.2 °C |
| O=S(=O)(Nc1n[nH]c(-c2ccc(F)cc2)c1-c1ccncc1)c1ccccc1 [Example 139, 5-(4-fluorophenyl)-3-phenylsulfonylamino-4-(4-pyridyl)pyrazole] | 181 to 183.3 °C |
| Cc1ccc(S(=O)(=O)Nc2n[nH]c(-c3ccc(F)cc3)c2-c2ccncc2)cc1 [Example 140, 5-(4-Fluorophenyl)-4-(4-pyridyl)-3-(p-toluenesulfonylamino)pyrazole] | 221.2 to 221.5 °C |
